US9283244B2, “Treatment of cancer by inhibiting activity or expression of late SV-40 factor” (Virginia Commonwealth University, priority 2010, dated 2016)
Values belong to the molecule of their own block, whether it stands above or below them.

Key:
[1] = target: T1, c-Met (Homo sapiens, UniProt P08581); test: Western blot of c-Met activation (p-c-Met) in HepG3 cells; type: cell-based
T1 construct: endogenous in cells; host or cells: HepG3 cells; LSF-17 clone of HepG3 (stably overexpresses LSF, not c-Met)
Method: FIGS. 10A-D. OPN activates c-Met. A. HepG3 cells were treated with OPN (100 ng/ml) for the indicated time points and p-c-Met and total c-Met levels were analyzed by Western blot analysis. B. Expression of OPN and p-c-Met was determined by immunohistochemical analysis in FFPE sections of normal liver and matched HCC. A representative figure is shown from one patient. C. Statistical correlation between OPN and phospho-c-Met levels in 50 human HCC patients analyzed by Pearson's test. D. Left panel: LSF-17consh-15 (Consh-15) is a clone of LSF-17 cells that stably expresses control scrambled shRNA and LSF-17-OPNsh-6 (OPNsh-6) and LSF-17-OPNsh-18 (OPNsh-18) are clones of LSF-17 cells stably expressing OPN shRNA. The expression of the indicated proteins was detected by Western blot analysis. Right panel, LSF-17 clone of HepG3 cells were treated with normal IgG (mouse and rabbit; Santa Cruz), anti-αvβ3 integrin antibody (mouse; Millipore) or anti-CD44 antibody (rabbit; Santa Cruz) at a concentration of 20 μg/ml for 24 h and the expression of the indicated proteins was detected by Western blot analysis.
(§1) FIGS. 12A-F. Inhibition of CD44 and c-Met by SU11274 blocks LSF function. A. LSF-17 cells were treated with normal IgG or anti-CD44 antibody and then subjected to Matrigel invasion assay. (B, C) Cell viability (MTT) assay of LSF-17 (B) and QGY-7703 (C) cells treated with SU11274 (5 μM) for the indicated time period. (D, E) Matrigel invasion assays of LSF-17 (D) and QGY-7703 (E) cells treated with SU11274 (5 μM). For SU11274 removal, cells were treated with SU11274 for 24 h before seeding them in the invasion chamber in SU11274-free condition. For A-E, data represent mean±SEM. F. HepG3 cells were untreated or treated with OPN (100 ng/ml) and with SU11274 (5 μM) for 24 h and the expression of the indicated proteins were detected by Western blot analysis. Asterisk (*) represents statistically significant difference (p<0.05).
(§2) Preparation of whole cell lysates and Western blot analyses were performed as described (5). The primary antibodies used were anti-LSF (1:2,000; mouse monoclonal; BD Biosciences), anti-pERK (1:2,000; rabbit polyclonal; Cell Signaling), anti-ERK (1:2,000; rabbit polyclonal; Cell Signaling), anti-pAKT (1:1,000; rabbit polyclonal; Cell Signaling) and anti-AKT (1:1,000; rabbit polyclonal; Cell Signaling). Blots were stripped and normalized by re-probing with anti-β-tubulin (1:1,000; mouse monoclona; Sigma).
To confirm the link between OPN and c-Met, HepG3 cells were treated with OPN (100 ng/ml) for 24 h in the presence or absence of SU11274. […] Treatment with OPN increased p-Akt/Akt ratio to 1.42 which was decreased to 0.63 upon SU11274 treatment.

[2] = test system: ERK; test: Western blot of ERK activation in HepG3 cells; type: cell-based, human; settings: 24 h
Method: as §1
as §2, with “Sigma). […]” for “Sigma).”

[3] = target: T2, CD44 and c-Met (Homo sapiens, UniProt P16070); test: Co-immunoprecipitation of CD44 and c-Met in HepG3 cells; type: cell-based
T2 construct: endogenous in cells; host or cells: HepG3 cells (lysates)
Method: FIGS. 11A-E. OPN facilitates c-Met activation via CD44 receptor. A. Left panel, HepG3 cells were cultured in serum-free conditions. Right panel, HepG3 cells were cultured in serum-containing medium and untreated or treated with OPN (100 ng/ml) for 24 h. Cell lysates were subjected to immunoprecipitation by anti-c-Met antibody and immunoblotting with anti-CD44, anti-[…] integrin and anti-c-Met antibodies. B. The culture conditions are the same as in A. Immunoprecipitation was done with anti-CD44 antibody and immunoblotting was done with anti-c-Met and anti-CD44 antibody. C. HepG3 cell were cultured in serum-free conditions and then untreated or treated with OPN (100 ng/ml) for 24 h. Immunoprecipitation was done with anti-CD44 antibody and immunoblotting was done with anti-p-c-Met or anti-CD44 antibodies. D. Lysates from LSF-17 and QGY-7703 cells were subjected to immunoprecipitation by anti-c-Met antibody and immunoblotting by anti-CD44, anti-αvβ3 integrin and anti-c-Met antibodies. E. Lysates from LSF-17 and QGY-7703 cells were subjected to immunoprecipitation by anti-CD44 antibody and immunoblotting by anti-c-Met, anti-p-c-Met and anti-CD44 antibodies. The bottom panel serves as inputs for D and E. IgG was used as a control in all the experiments.
We next explored the molecular mechanism of c-Met activation by OPN using co-immunoprecipitation analysis. […]

[4] = test system: Akt; test: Western blot of Akt activation in HepG3 cells; type: cell-based, human
Method: as §1, §2
Treatment with OPN increased p-Akt/Akt ratio to 1.42 which was decreased to 0.63 upon SU11274 treatment.

[5] = test system: QGY-7703 cells; test: Matrigel invasion assay, QGY-7703 cells; type: cell-based, human
Method: as §1
(§3) FIGS. 13A-F. Genetic inhibition of c-Met by shRNA blocks LSF function. […] A. Expression of the indicated proteins was detected in the indicated cells by Western blot analysis. […] D. QGY-7703 cells were transfected with control scrambled siRNA (siCon) or c-Met siRNA (siMet) and cell viability was measured by MTT assay. […] F. The expression of the indicated proteins was detected in the indicated cells by Western blot analysis. […]
(§4) Primary rat hepatocytes were isolated and cultured as described (19). […] Cell viability was determined by standard MTT assays as described (5). […]

[6] = test system: LSF-17 cells; test: Cell viability by standard MTT assay, LSF-17 cells; type: cell-based, human; settings: SU11274 5 μM
Method: as §1, with “(p<0.05). Primary rat hepatocytes were isolated and cultured as described (19). SNU-423 cells were obtained from ATCC and cultured as instructed. HepG3, QGY-7703, Hep3B, HuH7, Focus and HEK-293 cells were cultured as described (20). Cell viability was determined by standard MTT assays as described (5). Colony formation, anchorage-independent growth in soft agar and matrigel invasion assays were performed exactly as described (5). […] LSF-17 cells and QGY-7703 cells were treated with the chemical inhibitor of c-Met, SU11274 (5 μM), and cell viability and Matrigel invasion was monitored. […]” for “(p<0.05).”

[7] = test system: QGY-7703 cells; test: Cell viability by standard MTT assay, QGY-7703 cells; type: cell-based, human; settings: SU11274 5 μM
Method: as §1, §3, §4

[8] = test system: LSF-17 cells; test: Matrigel invasion assay, LSF-17 cells; type: cell-based, human
Method: FIGS. 8A-D. Inhibition of OPN abrogates LSF-induced tumorigenesis and metastasis. The indicated clones were subcutaneously implanted in athymic nude mice. A. Tumor volume and tumor weight were measured 3 weeks after implantation. B. Graphical representation of metastatic lung nodules in the animals injected with the LSF-17consh-15 and LSF-17-OPNsh-18 clones via tail vein. The data represent mean±SEM. Inset: H&E sections of lungs of animals injected with the indicated clones. C. Parental HepG3 cells were treated with conditioned media from Control-8 or LSF-17 clone of HepG3 cells and then subjected to matrigel invasion. D. Matrigel invasion assay using LSF17 clone of HepG3 cells in the presence of neutralizing antibodies. Integrin: anti-αvβ3 integrin antibody. […]
FIGS. 12A-F. Inhibition of CD44 and c-Met by SU11274 blocks LSF function. […] F. HepG3 cells were untreated or treated with OPN (100 ng/ml) and with SU11274 (5 μM) for 24 h and the expression of the indicated proteins were detected by Western blot analysis. […]
as §4
We next investigated the importance of c-Met activation in mediating LSF function. LSF-17 cells and QGY-7703 cells were treated with the chemical inhibitor of c-Met, SU11274 (5 μM), and cell viability and Matrigel invasion was monitored. […]

[9] = test system: parental HepG3 cells; test: Cell viability, parental HepG3 cells; type: cell-based, human; settings: SU11274 treatment; data not shown
Method: Primary rat hepatocytes were isolated and cultured as described (19). SNU-423 cells were obtained from ATCC and cultured as instructed. HepG3, QGY-7703, Hep3B, HuH7, Focus and HEK-293 cells were cultured as described (20). Cell viability was determined by standard MTT assays as described (5). Colony formation, anchorage-independent growth in soft agar and matrigel invasion assays were performed exactly as described (5). We next investigated the importance of c-Met activation in mediating LSF function. LSF-17 cells and QGY-7703 cells were treated with the chemical inhibitor of c-Met, SU11274 (5 μM), and cell viability and Matrigel invasion was monitored. […] For invasion assay cells were treated with SU11274 for 24 h, a time point when no significant effect on cell viability was observed.

[10] = treated 24 h, then SU11274-free during invasion assay
[11] = co-treatment with SU11274 5 μM, 24 h

T1 sequence (P08581 25-1390): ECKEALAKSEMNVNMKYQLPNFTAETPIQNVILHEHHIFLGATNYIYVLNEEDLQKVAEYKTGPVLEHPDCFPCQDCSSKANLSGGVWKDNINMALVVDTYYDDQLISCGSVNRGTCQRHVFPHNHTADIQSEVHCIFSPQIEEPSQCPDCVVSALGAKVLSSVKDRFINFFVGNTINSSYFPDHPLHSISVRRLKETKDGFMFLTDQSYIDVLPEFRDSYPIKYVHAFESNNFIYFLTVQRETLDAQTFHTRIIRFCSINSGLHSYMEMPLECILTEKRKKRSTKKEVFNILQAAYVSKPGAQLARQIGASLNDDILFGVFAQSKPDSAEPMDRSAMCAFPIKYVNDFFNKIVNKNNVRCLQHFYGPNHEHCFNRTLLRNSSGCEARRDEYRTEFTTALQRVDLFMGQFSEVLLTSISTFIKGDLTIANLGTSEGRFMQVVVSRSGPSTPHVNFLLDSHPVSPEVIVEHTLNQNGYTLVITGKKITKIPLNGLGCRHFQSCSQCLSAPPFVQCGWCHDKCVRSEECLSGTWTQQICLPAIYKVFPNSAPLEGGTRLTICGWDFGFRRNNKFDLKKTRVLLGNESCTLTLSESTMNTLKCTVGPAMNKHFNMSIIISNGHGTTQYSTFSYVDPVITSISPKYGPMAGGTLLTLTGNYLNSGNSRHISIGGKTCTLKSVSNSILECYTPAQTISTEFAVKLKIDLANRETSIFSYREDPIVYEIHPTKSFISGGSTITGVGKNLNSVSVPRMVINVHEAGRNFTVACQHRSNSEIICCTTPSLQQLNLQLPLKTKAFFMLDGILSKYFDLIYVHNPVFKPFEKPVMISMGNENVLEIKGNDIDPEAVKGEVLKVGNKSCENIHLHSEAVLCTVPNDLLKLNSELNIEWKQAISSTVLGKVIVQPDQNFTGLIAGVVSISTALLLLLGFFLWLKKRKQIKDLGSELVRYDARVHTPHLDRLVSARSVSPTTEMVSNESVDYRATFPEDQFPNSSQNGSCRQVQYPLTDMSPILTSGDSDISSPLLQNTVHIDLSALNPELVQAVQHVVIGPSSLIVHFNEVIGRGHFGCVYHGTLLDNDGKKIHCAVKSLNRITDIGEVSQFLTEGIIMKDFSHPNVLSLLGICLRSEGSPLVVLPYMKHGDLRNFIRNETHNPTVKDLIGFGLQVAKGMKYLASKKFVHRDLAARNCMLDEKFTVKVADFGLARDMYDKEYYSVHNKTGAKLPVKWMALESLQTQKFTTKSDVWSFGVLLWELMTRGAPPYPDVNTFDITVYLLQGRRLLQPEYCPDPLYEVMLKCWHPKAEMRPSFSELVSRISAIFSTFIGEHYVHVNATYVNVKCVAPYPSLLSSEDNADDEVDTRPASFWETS
T2 sequence (P16070 21-742): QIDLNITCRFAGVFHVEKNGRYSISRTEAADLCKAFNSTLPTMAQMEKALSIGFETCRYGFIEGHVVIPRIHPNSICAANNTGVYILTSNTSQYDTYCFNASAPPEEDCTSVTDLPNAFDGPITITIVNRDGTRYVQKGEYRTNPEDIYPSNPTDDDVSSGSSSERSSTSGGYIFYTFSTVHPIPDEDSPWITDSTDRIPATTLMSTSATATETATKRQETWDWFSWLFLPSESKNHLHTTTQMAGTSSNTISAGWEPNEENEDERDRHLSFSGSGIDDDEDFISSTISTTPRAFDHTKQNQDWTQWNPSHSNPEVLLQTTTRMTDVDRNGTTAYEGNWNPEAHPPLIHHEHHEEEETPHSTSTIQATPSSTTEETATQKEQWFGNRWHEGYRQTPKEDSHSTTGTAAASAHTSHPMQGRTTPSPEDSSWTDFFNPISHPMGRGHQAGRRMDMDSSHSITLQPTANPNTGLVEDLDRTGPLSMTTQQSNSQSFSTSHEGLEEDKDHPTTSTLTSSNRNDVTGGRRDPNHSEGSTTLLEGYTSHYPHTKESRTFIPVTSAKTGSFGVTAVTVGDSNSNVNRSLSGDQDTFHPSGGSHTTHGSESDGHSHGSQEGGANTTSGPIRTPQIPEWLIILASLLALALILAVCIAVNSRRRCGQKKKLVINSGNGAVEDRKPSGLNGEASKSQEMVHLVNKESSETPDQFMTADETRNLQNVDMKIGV
T2 sequence (P08581 308-1390 partner limits assumed): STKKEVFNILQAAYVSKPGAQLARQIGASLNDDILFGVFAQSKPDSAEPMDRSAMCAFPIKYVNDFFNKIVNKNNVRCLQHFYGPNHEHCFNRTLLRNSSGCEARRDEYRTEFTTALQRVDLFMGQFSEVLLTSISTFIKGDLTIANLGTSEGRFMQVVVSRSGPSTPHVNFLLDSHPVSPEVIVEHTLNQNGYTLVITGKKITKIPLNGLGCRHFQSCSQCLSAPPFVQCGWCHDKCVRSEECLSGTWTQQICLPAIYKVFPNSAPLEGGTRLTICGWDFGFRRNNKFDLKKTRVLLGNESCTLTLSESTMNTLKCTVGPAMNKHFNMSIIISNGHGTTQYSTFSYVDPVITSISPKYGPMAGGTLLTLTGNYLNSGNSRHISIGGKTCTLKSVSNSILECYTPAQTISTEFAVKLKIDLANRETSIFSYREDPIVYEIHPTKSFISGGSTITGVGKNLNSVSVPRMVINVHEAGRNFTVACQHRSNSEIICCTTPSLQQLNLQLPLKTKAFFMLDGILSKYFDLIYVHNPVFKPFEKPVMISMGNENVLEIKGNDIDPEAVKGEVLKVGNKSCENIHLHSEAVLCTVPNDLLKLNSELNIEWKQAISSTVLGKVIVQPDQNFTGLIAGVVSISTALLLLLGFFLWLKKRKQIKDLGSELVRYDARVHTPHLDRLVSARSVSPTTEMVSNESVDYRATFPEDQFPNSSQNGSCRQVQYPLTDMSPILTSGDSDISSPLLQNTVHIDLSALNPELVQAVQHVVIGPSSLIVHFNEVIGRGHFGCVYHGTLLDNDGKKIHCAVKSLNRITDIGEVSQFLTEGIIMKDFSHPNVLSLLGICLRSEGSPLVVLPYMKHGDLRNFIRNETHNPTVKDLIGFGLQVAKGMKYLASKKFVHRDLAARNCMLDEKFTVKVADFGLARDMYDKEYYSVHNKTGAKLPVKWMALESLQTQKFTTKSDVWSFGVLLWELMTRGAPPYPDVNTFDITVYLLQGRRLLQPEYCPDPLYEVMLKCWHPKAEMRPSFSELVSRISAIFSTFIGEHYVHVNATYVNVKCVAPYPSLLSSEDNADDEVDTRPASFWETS
T2 sequence (P08581 25-307 partner limits assumed): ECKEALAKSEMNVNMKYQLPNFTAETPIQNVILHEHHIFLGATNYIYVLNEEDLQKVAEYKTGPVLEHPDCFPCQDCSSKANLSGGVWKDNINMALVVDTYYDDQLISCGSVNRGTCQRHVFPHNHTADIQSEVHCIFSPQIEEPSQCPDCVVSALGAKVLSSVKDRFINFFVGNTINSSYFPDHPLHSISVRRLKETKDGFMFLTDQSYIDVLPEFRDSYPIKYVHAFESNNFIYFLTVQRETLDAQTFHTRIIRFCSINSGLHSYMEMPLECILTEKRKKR

- activation of c-Met ([1]; OPN 100 ng/ml, 24 h): significantly activated
- total c-Met level ([1]; OPN treatment): did not change
- activated c-Met level at 6 h post-treatment ([1]; purified OPN 100 ng/ml): remained higher than basal level
- time of peak level of c-Met activation post-treatment ([1]; purified OPN 100 ng/ml): 30 min
- binding affinity between c-Met and CD44 ([3]; serum-containing culture, OPN 100 ng/ml): did not affect the binding affinity
- association between CD44 and phospho-c-Met ([3]; serum-free conditions, OPN 100 ng/ml 24 h): significantly increased
Molecule: OPN: purified osteopontin, a secreted protein, added to cells at 100 ng/ml
- activation of ERK ([2]; OPN 100 ng/ml): significantly activated
- activation of Akt ([4]; OPN 100 ng/ml, 24 h): significantly activated
- p-Akt/Akt ratio ([4]; OPN 100 ng/ml, 24 h, control group 0.58): 1.42

- inhibition of basal and OPN-induced activation of c-Met [1, 11]: significant inhibition
Molecule: Cc1[nH]c(/C=C2\C(=O)Nc3ccc(S(=O)(=O)N(C)c4cccc(Cl)c4)cc32)c(C)c1C(=O)N1CCN(C)CC1 [SU11274]
- Matrigel invasion ([5]; SU11274 5 μM, 24 h): significantly inhibited
- Matrigel invasion after removal of SU11274 [5, 10]: significantly rescued the cells from inhibition of invasion
- cell viability (MTT) [6]: significantly decreased
- cell viability (MTT) [7]: significantly decreased
- inhibition of basal and OPN-induced activation of ERK ([2]; SU11274 5 μM): partial inhibition
- Matrigel invasion ([8]; SU11274 5 μM, 24 h): significantly inhibited
- Matrigel invasion after removal of SU11274 [8, 10]: significantly rescued the cells from inhibition of invasion
- viability of parental HepG3 cells [9]: did not affect the viability
- p-Akt/Akt ratio ([4]; OPN 100 ng/ml plus SU11274, 24 h): 0.63
- p-Akt/Akt ratio ([4]; SU11274 alone (basal), control group 0.58): 0.05
- inhibition of basal and OPN-induced activation of Akt [4, 11]: significant inhibition
